Converted amounts (≈) assume the structure as drawn.
Legend:
B16 [1] = experiment: Antitumor activity against mouse B16 cells xenografted in BDF1 mouse assessed as median survival time at 3.2 mg/kg; type: functional
B16 [2] = experiment: Antitumor activity against mouse B16 cells xenografted in BDF1 mouse assessed as median survival time at 1.6 mg/kg; type: functional
B16 [3] = experiment: Antitumor activity against mouse B16 cells xenografted in BDF1 mouse assessed as median survival time at 0.8 mg/kg; type: functional
Pseudomonas aeruginosa = experiment: Antibacterial activity against Pseudomonas aeruginosa A-9843A by 2-fold tube dilution method; type: functional
Enterococcus faecalis = experiment: Antibacterial activity against Streptococcus faecalis A20688 by 2-fold tube dilution method; type: functional
Staphylococcus = experiment: Antibacterial activity against penicillin resistant Staphylococcus A-9606 by 2-fold tube dilution method; type: functional
Streptococcus pneumoniae = experiment: Antibacterial activity against Streptococcus pneumoniae A-9585 by 2-fold tube dilution method; type: functional
Streptococcus pyogenes = experiment: Antibacterial activity against Streptococcus pyogenes A-9604 by 2-fold tube dilution method; type: functional
Escherichia coli = experiment: Antibacterial activity against Escherichia coli A15119 by 2-fold tube dilution method; type: functional
Klebsiella pneumoniae = experiment: Antibacterial activity against Klebsiella pneumoniae A15130 by 2-fold tube dilution method; type: functional
Proteus mirabilis = experiment: Antibacterial activity against Proteus mirabilis A-9900 by 2-fold tube dilution method; type: functional
Proteus vulgaris = experiment: Antibacterial activity against Proteus vulgaris A21559 by 2-fold tube dilution method; type: functional
Serratia marcescens = experiment: Antibacterial activity against Serratia marcescens A20019 by 2-fold tube dilution method; type: functional
Enterobacter cloacae = experiment: Antibacterial activity against Enterobacter cloacae A-9659 by 2-fold tube dilution method; type: functional
Candida albicans [4] = experiment: Antifungal activity against Candida albicans A-9540 by 2-fold tube dilution method; type: functional
Candida albicans [5] = experiment: Antifungal activity against Candida albicans A15049 by 2-fold tube dilution method; type: functional
Candida albicans [6] = experiment: Antifungal activity against Candida albicans A15050 by 2-fold tube dilution method; type: functional
[7] = system: Trichophyton mentagrophytes; experiment: Antifungal activity against Trichophyton mentagrophytes A-9870 by 2-fold tube dilution method; type: functional
Microsporum canis = experiment: Antifungal activity against Microsporum canis A-9872 by 2-fold tube dilution method; type: functional
L1210 [8] = experiment: Antitumor activity against mouse L1210 cells xenografted in BDF1 mouse assessed as median survival time at 3.2 mg/kg, ip; type: functional; conditions: route intraperitoneal
L1210 [9] = experiment: Antitumor activity against mouse L1210 cells xenografted in BDF1 mouse assessed as median survival time at 1.6 mg/kg, ip; type: functional; conditions: route intraperitoneal
L1210 [10] = experiment: Antitumor activity against mouse L1210 cells xenografted in BDF1 mouse assessed as median survival time at 0.4 mg/kg, ip; type: functional; conditions: route intraperitoneal
L1210 [11] = experiment: Antitumor activity against mouse L1210 cells xenografted in BDF1 mouse at 3.2 mg/kg, ip relative to control; type: functional; conditions: route intraperitoneal
L1210 [12] = experiment: Antitumor activity against mouse L1210 cells xenografted in BDF1 mouse at 1.6 mg/kg, ip relative to control; type: functional; conditions: route intraperitoneal
L1210 [13] = experiment: Antitumor activity against mouse L1210 cells xenografted in BDF1 mouse at 0.4 mg/kg, ip relative to control; type: functional; conditions: route intraperitoneal
L1210 [14] = experiment: Antitumor activity against mouse L1210 cells xenografted in BDF1 mouse assessed as change in tumor average weight at 3.2 mg/kg, ip; type: functional; conditions: route intraperitoneal
L1210 [15] = experiment: Antitumor activity against mouse L1210 cells xenografted in BDF1 mouse assessed as change in tumor average weight at 1.6 mg/kg, ip; type: functional; conditions: route intraperitoneal
Mus musculus [16] = experiment: Toxicity in BDF1 mouse xenografted with mouse L1210 cells assessed as survival at 12.8 mg/kg, ip after 5 days; type: organism-based; design: dose 12.8 mg/kg, route intraperitoneal; conditions: in vivo, 120 h
Mus musculus [17] = experiment: Toxicity in BDF1 mouse xenografted with mouse B16 cells assessed as survival at 0.1 mg/kg after 5 days; type: organism-based; design: dose 0.1 mg/kg
Mus musculus [18] = experiment: Toxicity in BDF1 mouse xenografted with mouse B16 cells assessed as survival at 0.025 mg/kg after 5 days; type: organism-based; design: dose 0.025 mg/kg
Mus musculus [19] = experiment: Toxicity in BDF1 mouse xenografted with mouse L1210 cells assessed as survival at 0.8 mg/kg, ip after 5 days; type: organism-based; design: dose 0.8 mg/kg, route intraperitoneal; conditions: in vivo, 120 h
Mus musculus [20] = experiment: Toxicity in BDF1 mouse xenografted with mouse L1210 cells assessed as survival at 0.4 mg/kg, ip after 5 days; type: organism-based; design: dose 0.4 mg/kg, route intraperitoneal; conditions: in vivo, 120 h
B16 [21] = experiment: Antitumor activity against mouse B16 cells xenografted in BDF1 mouse assessed as median survival time at 0.4 mg/kg; type: functional
B16 [22] = experiment: Antitumor activity against mouse B16 cells xenografted in BDF1 mouse assessed as median survival time at 0.2 mg/kg; type: functional
B16 [23] = experiment: Antitumor activity against mouse B16 cells xenografted in BDF1 mouse assessed as median survival time at 0.1 mg/kg; type: functional
B16 [24] = experiment: Antitumor activity against mouse B16 cells xenografted in BDF1 mouse assessed as median survival time at 0.05 mg/kg; type: functional
B16 [25] = experiment: Antitumor activity against mouse B16 cells xenografted in BDF1 mouse assessed as median survival time at 0.025 mg/kg; type: functional
B16 [26] = experiment: Antitumor activity against mouse B16 cells xenografted in BDF1 mouse at 3.2 mg/kg relative to control; type: functional
B16 [27] = experiment: Antitumor activity against mouse B16 cells xenografted in BDF1 mouse at 1.6 mg/kg relative to control; type: functional
B16 [28] = experiment: Antitumor activity against mouse B16 cells xenografted in BDF1 mouse at 0.4 mg/kg relative to control; type: functional
B16 [29] = experiment: Antitumor activity against mouse B16 cells xenografted in BDF1 mouse at 0.2 mg/kg relative to control; type: functional
B16 [30] = experiment: Antitumor activity against mouse B16 cells xenografted in BDF1 mouse at 0.1 mg/kg relative to control; type: functional
B16 [31] = experiment: Antitumor activity against mouse B16 cells xenografted in BDF1 mouse at 0.05 mg/kg relative to control; type: functional
B16 [32] = experiment: Antitumor activity against mouse B16 cells xenografted in BDF1 mouse assessed as change in tumor average weight at 3.2 mg/kg; type: functional
B16 [33] = experiment: Antitumor activity against mouse B16 cells xenografted in BDF1 mouse assessed as change in tumor average weight at 1.6 mg/kg; type: functional
B16 [34] = experiment: Antitumor activity against mouse B16 cells xenografted in BDF1 mouse assessed as change in tumor average weight at 0.8 mg/kg; type: functional
B16 [35] = experiment: Antitumor activity against mouse B16 cells xenografted in BDF1 mouse assessed as change in tumor average weight at 0.2 mg/kg; type: functional
B16 [36] = experiment: Antitumor activity against mouse B16 cells xenografted in BDF1 mouse assessed as change in tumor average weight at 0.1 mg/kg; type: functional
B16 [37] = experiment: Antitumor activity against mouse B16 cells xenografted in BDF1 mouse assessed as change in tumor average weight at 0.05 mg/kg; type: functional
B16 [38] = experiment: Antitumor activity against mouse B16 cells xenografted in BDF1 mouse assessed as change in tumor average weight at 0.025 mg/kg; type: functional
Mus musculus [39] = experiment: Toxicity in BDF1 mouse xenografted with mouse B16 cells assessed as survival at 1.6 mg/kg after 5 days; type: organism-based; design: dose 1.6 mg/kg
Mus musculus [40] = experiment: Toxicity in BDF1 mouse xenografted with mouse B16 cells assessed as survival at 0.8 mg/kg after 5 days; type: organism-based; design: dose 0.8 mg/kg

Compound `CC[C@@]1(O)C[C@H](O[C@H]2C[C@H](N(C)C)[C@H](O[C@H]3C[C@H](O)[C@H](O[C@@H]4O[C@@H](C)C(=O)C=C4N)[C@@H](C)O3)[C@@H](C)O2)c2c(cc3c(c2O)C(=O)c2c(O)ccc(O)c2C3=O)[C@H]1C(=O)OC` [RUDOLPHOMYCIN] has an Activity (B16 [1]) of 23 days, an Activity (B16 [2]) of 32 days and an Activity (B16 [3]) of 29 days. It also gave an MIC (Pseudomonas aeruginosa) greater than 125 µg/mL, an MIC (Enterococcus faecalis) of 1 µg/mL (≈ 1.19 µM) and an MIC (Staphylococcus) of 32 µg/mL (≈ 38.1 µM). It also gave an MIC (Streptococcus pneumoniae) of 0.06 µg/mL (≈ 0.0714 µM), an MIC (Streptococcus pyogenes) of 0.25 µg/mL (≈ 0.297 µM) and an MIC (Escherichia coli) greater than 125 µg/mL. The MIC (Klebsiella pneumoniae) was greater than 125 µg/mL, the MIC (Proteus mirabilis) was greater than 125 µg/mL and the MIC (Proteus vulgaris) was greater than 125 µg/mL. It also gave an MIC (Serratia marcescens) greater than 125 µg/mL, an MIC (Enterobacter cloacae) greater than 125 µg/mL and an MIC (Candida albicans [4]) greater than 16 µg/mL. It also gave an MIC (Candida albicans [5]) greater than 16 µg/mL, an MIC (Candida albicans [6]) greater than 16 µg/mL and an MIC [7] greater than 16 µg/mL. For the same compound, the MIC (Microsporum canis) was greater than 16 µg/mL, the Activity (L1210 [8]) was 8 days and the Activity (L1210 [9]) was 10 days. The Activity (L1210 [10]) was 8 days, the T/C (L1210 [11]) was 107% and the T/C (L1210 [12]) was 133%. For the same compound, the T/C (L1210 [13]) was 107%, the Activity (L1210 [14]) was -2.2 g and the Activity (L1210 [15]) was -1.2 g. For the same compound, the Activity (Mus musculus [16]) was “Toxic”, the AC50 (Mus musculus [17]) was “Non-toxic” and the AC50 (Mus musculus [18]) was “Non-toxic”. For the same compound, the Activity (Mus musculus [19]) was “Non-toxic”, the Activity (Mus musculus [20]) was “Non-toxic” and the Activity (B16 [21]) was 26.5 days. For the same compound, the Activity (B16 [22]) was 26 days, the Activity (B16 [23]) was 27.5 days and the Activity (B16 [24]) was 22 days. For the same compound, the Activity (B16 [25]) was 22.5 days, the T/C (B16 [26]) was 115% and the T/C (B16 [27]) was 160%. It also gave a T/C (B16 [28]) of 133%, a T/C (B16 [29]) of 130% and a T/C (B16 [30]) of 138%. For the same compound, the T/C (B16 [31]) was 110%, the Activity (B16 [32]) was -0.3 g and the Activity (B16 [33]) was -2.5 g. It also gave an Activity (B16 [34]) of -0.2 g, an Activity (B16 [35]) of -1 g and an Activity (B16 [36]) of -0.4 g. The Activity (B16 [37]) was -0.8 g, the Activity (B16 [38]) was -0.9 g and the AC50 (Mus musculus [39]) was “Non-toxic”. For the same compound, the AC50 (Mus musculus [40]) was “Non-toxic”.

Source: ChEMBL document CHEMBL1151339, “Antitumor agents from bohemic acid complex, III. The isolation of marcellomycin, musettamycin, rudolphomycin, mimimycin, collinemycin, alcindoromycin, and bohemamine” (J Nat Prod, 1980)
